“Also recorded” adds a separate entry of the source.
Experiments:
[1] = Wall et al., J. Nat. Prod. 1989; cited from earlier work
[2] = system: human progesterone receptor altered at the Tau-1 location; assay: Co-transfection assay in CV-1 cells, progesterone receptor altered at Tau-1, antagonist activity; format: cell-based
How it was run: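 CV-1 cells co-transfected with RSV-LTR-driven human PR (altered at Tau-1) and a hormone-responsive luciferase reporter; antagonism measured against a fixed agonist concentration. Luciferase in cell extracts read, triplicate points, potency from concentration-response; […].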

T47D cells = assay: Alkaline phosphatase activity in T47D cells (induction and its inhibition); format: cell-based, human; conditions: ligand alone; three days
Excerpt: The functional activities of the cyclocymopol analogues in the human breast cell line, T47D, were also investigated. T47D cells have proven to be a particularly useful model to investigate the molecular actions of sex steroids because they contain endogenous functional receptors for, and respond to, progestins, and their respective antagonists. Moreover, these cells contain exceptionally high titers of progesterone receptors and are exquisitely sensitive to the actions of progestins in a manner quite similar to their actions in normal and neoplastic mammary epithelial cells. In T47D cells, progestins induce de novo synthesis of a plasma-associated alkaline phosphatase, which has been reported to be similar, if not identical, to the alkaline phosphatase present in the normal breast and human milk. These tests were conducted according to the following illustrative example. […] For routine induction of alkaline phosphatase, cells were treated for three days with two media changes and harvested as described below. […] Nuclei were sedimented at 2500 rpm, and the supernatant was saved as cytosol. The protein content of the cytosol was assayed by the method of Bradford. Alkaline phosphatase activity was determined by incubating one volume of cell extract with three volumes of 1 mg/ml p-nitrophenol phosphate prepared in DEAM (1M diethanolamine, pH=9, containing 2 mM magnesium chloride) at room temperature for 20 min. At the end of the incubation time, the reaction was stopped with an equal volume of 1N NaOH. Ten standards of p-nitrophenol were prepared in DEAM buffer and absorbance was read at 405 nm. Alkaline phosphatase activity is expressed as pmol p-nitrophenol formed/min/mg protein.

[3] = target: T1, human progesterone receptor (Homo sapiens, UniProt P06401); assay: Co-transfection (cis-trans) assay in CV-1 cells, agonist and antagonist mode; format: cell-based; set-up: expressed in transfected cells; host or cells: CV-1 cells (calcium phosphate transfection), whole cell extract; conditions: antagonist mode with 10^-8 M progesterone
T1 sequence (P06401 1-933): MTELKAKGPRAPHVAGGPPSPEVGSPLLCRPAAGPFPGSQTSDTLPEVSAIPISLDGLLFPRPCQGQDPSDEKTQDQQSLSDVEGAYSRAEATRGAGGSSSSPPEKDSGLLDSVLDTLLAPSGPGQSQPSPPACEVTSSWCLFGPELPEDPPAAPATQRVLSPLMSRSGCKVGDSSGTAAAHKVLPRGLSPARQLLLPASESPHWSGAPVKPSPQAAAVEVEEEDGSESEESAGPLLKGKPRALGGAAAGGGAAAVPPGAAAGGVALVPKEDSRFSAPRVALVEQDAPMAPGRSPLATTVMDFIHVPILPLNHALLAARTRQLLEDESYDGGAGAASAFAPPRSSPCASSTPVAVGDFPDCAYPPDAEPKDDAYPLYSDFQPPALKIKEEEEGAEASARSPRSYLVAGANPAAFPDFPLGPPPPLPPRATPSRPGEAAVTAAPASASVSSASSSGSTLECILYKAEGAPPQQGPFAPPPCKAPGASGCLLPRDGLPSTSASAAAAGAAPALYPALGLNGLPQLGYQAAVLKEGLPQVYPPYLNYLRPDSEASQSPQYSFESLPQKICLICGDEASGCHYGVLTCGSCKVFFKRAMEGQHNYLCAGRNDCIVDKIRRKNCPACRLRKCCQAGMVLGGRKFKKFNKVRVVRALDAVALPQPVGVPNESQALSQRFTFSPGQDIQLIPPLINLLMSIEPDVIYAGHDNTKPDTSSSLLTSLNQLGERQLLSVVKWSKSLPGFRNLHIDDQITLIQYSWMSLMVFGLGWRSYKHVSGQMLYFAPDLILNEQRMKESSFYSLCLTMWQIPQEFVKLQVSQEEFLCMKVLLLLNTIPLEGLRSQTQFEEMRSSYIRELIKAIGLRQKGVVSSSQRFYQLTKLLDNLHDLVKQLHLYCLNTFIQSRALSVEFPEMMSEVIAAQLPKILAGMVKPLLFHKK
Excerpt: This assay is described in further detail in U.S. Pat. Nos. 4,981,784 and 5,071,773, which are incorporated herein by reference. The co-transfection assay provides a method for identifying functional ligands (either agonists which mimic, or antagonists which inhibit, the effect of hormones) for ligand-responsive receptor proteins.
The co-transfection assay provides a mechanism to evaluate ability of a compound to function as an agonist or antagonist of the activity modulated by an intracellular receptor. The co-transfection assay mimics an in vivo system in the laboratory. In the co-transfection assay, a cloned gene for an intracellular receptor is introduced by transfection (a procedure to induce cells to take up foreign genes) into a background cell substantially devoid of endogenous intracellular receptors. This introduced gene directs the recipient cells to make the intracellular receptor protein. A second gene is also introduced (co-transfected) into the same cells in conjunction with the intracellular receptor gene. This second gene functions as a reporter for the transcription-modulating activity of the target intracellular receptor. The reporter acts as a surrogate for the products normally expressed by a gene under control of the target receptor and its natural hormone.
A preferred reporter gene is one which expresses the firefly enzyme luciferase. The co-transfection assay can detect small molecule agonists or antagonists of target intracellular receptors. Exposing the cells to an agonist ligand increases reporter activity in the transfected cells that can be conveniently measured, reflecting ligand-dependent, intracellular receptor-mediated increases in reporter transcription. To detect antagonists, the co-transfection assay is carried out in the presence of a constant concentration of an agonist known to induce a defined reporter signal. Increasing concentrations of a test antagonist will decrease the reporter signal. The co-transfection assay is therefore useful to detect both agonists and antagonists of specific intracellular receptors. It determines not only whether a compound interacts with a particular intracellular receptor, but also whether this interaction mimics (agonizes) or blocks (antagonizes) the effects of the natural regulatory molecules on target gene expression.
Co-transfected cells are exposed to a medium to which is added the potential ligand that is being evaluated. If the candidate ligand diffuses into the cell and binds to the receptor and the resulting complex functions as an agonist, it binds to the co-transfected reporter gene and initiates transcription. When that gene is one that expresses, for example, luciferase, luciferase is produced which catalyzes a light-emitting reaction with its substrate luciferin. Thus, after cell lysis and the introduction of luciferin, the amount of light produced relative to the concentration of candidate ligand used in the assay provides a measure of the potency and efficacy of the compound tested. Antagonist activity is evaluated by adding the candidate ligand and a known agonist to the co-transfected cells.
The receptor cDNA was introduced in a mammalian expression vector under the control of the Rous Sarcoma virus LTR. […] A reporter vector was also transfected, containing a firefly luciferase gene under the control of the hormone-responsive promoter. […] The level of luciferase activity was then measured in cell extracts. Light emission is directly proportional to the effectiveness of the hormone-receptor complex in activating gene expression.
A total of three replicates per concentration point were tested for each compound, and the EC50 was calculated for each positive response. Both agonist and antagonist activity for each test compound was determined in parallel.

[4] = target: T1, human progesterone receptor; assay: Progesterone receptor binding (displacement of 3H-progesterone, whole cell extract of transfected CV-1 cells); set-up: expressed in transfected cells; host or cells: CV-1 cells (calcium phosphate transfection), whole cell extract

IC50 ([2]; concentration required to reduce the maximal response by 50%, read-out: Potency (IC50), CV-1 cells) [nM]	Progesterone receptor agonist/antagonist activity [3]	Kd [4] [nM]	Molecule	Antimutagen activity [1]	Efficacy (% maximal response relative to RU-486), CV-1 cells ([2]; antagonist activity, relative to RU-486) [%]	Agonist activity, alkaline phosphatase induction (T47D cells)
–	–	–	4-isocymobarbatol	highly active antimutagens	–	–
> 10000	progesterone receptor agonist activity	325	C=C1CC[C@@H](Br)C(C)(C)[C@H]1Cc1cc(OC)c(Br)cc1O [SO-54, (3S)-cyclocymopol monomethyl ether]	–	< 20	functional agonists; also recorded: increased the activity of intracellular alkaline phosphatase in a concentration-dependent manner
–	–	–	CC1(C)[C@@H](Br)CC[C@@]2(C)Oc3cc(Br)c(O)cc3C[C@@H]12 [cymobarbatol]	highly active antimutagens	–	–

From patent publication US5808139A (Ligand Pharmaceuticals Incorporated, priority 1994, dated 1998)
